Molecular target: T1, Human MGAT-2 (Homo sapiens, UniProt Q3SYC2)
T1 construct: made in house; host or cells: Sf9 cells (membrane preparation)
Assay: MGAT LCMS Assay
Type: biochemical
Details: human MGAT2 membranes expressed in Sf9 cells; 100 μM 2-oleoylglycerol, 15 μM oleoyl-coenzyme A; read-out: h-MGAT LCMS IC50
In short: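 Robotic enzyme reaction shaken 10 min, quenched with ice-cold methanol containing 1 μg/mL 1,2-distearoyl-rac-glycerol internal standard. Diolein product measured by LC/MS (C8 column, 65° C, APCI(+) triple quad). IC50 derived from diolein/internal standard peak area ratio.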

T1 sequence (Q3SYC2 whole entry): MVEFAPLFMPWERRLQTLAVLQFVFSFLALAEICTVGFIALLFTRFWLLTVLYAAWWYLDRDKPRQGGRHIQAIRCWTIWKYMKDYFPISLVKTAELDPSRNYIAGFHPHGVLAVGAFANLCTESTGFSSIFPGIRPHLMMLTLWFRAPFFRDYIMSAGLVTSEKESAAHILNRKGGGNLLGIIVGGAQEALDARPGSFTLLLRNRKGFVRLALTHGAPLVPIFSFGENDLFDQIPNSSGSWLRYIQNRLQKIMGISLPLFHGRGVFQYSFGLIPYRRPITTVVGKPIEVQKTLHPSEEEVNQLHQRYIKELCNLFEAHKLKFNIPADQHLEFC

Row | SMILES | IC50 [nM]
1 | Cc1ccc(-c2cc(-c3ccc(OCCCC(F)(F)F)cc3)[nH]c(=O)c2-n2nn[nH]c2=O)cc1 [Example 153, 3-(5-Oxo-4,5-dihydro-1H-tetrazol-1-yl)-4-(p-tolyl)-6-(4-(4,4,4-trifluorobutoxy)phenyl)pyridin-2(1H)-one] | 49
2 | CCc1ccc(-c2cc(-c3ccc(OCCCCCC(F)(F)F)cc3)[nH]c(=O)c2-n2nn[nH]c2=O)s1 [Example 156, 4-(5-Ethylthiophen-2-yl)-3-(5-oxo-4,5-dihydro-1H-1,2,3,4-tetrazol-1-yl)-6-{4-[(6,6,6-trifluorohexyl)oxy]phenyl}-1,2-dihydropyridin-2-one] | 143
3 | Cc1ccc(-c2cc(-c3ccc(OCCCCCC(F)(F)F)cc3F)[nH]c(=O)c2-n2nn[nH]c2=O)cc1 [Example 159, 6-{2-Fluoro-4-[(6,6,6-trifluorohexyl)oxy]phenyl}-4-(4-methylphenyl)-3-(5-oxo-4,5-dihydro-1H-1,2,3,4-tetrazol-1-yl)-1,2-dihydropyridin-2-one] | 38
4 | CCc1ccc(-c2cc(-c3ccc(C4CCC(C)(C)CC4)cc3)[nH]c(=O)c2-c2nn[nH]n2)s1 [Example 161, 6-[4-(4,4-Dimethylcyclohexyl)phenyl]-4-(5-ethylthiophen-2-yl)-3-(2H-1,2,3,4-tetrazol-5-yl)-1,2-dihydropyridin-2-one] | 76
5 | O=c1[nH]c(-c2ccc(OCCCCCC(F)(F)F)cc2)cc(-c2ccc(OC(F)F)cc2)c1-n1nn[nH]c1=O [Example 162, 4-[4-(Difluoromethoxy)phenyl]-3-(5-oxo-4,5-dihydro-1H-1,2,3,4-tetrazol-1-yl)-6-{4-[(6,6,6-trifluorohexyl)oxy]phenyl}-1,2-dihydropyridin-2-one] | 1970
6 | CCc1ccc(-c2cc(-c3ccc(C4=CCC(C(C)(C)C)CC4)cc3)[nH]c(=O)c2-c2nn[nH]n2)s1 (centres unmarked) [Example 163, 6-[4-(4-tert-Butylcyclohex-1-en-1-yl)phenyl]-4-(5-ethylthiophen-2-yl)-3-(2H-1,2,3,4-tetrazol-5-yl)-1,2-dihydropyridin-2-one] | 69

Results, then the compound that gave them:

Row | IC50 [nM] | SMILES
7 | 2 | CCc1ccc(-c2cc(-c3ccc(OCCCCCC(F)(F)F)cc3C(F)(F)F)[nH]c(=O)c2C(=O)NS(=O)(=O)C2CC2)s1 [Example 154, N-(Cyclopropanesulfonyl)-4-(5-ethylthiophen-2-yl)-2-oxo-6-{4-[(6,6,6-trifluorohexyl)oxy]-2-(trifluoromethyl)phenyl}-1,2-dihydropyridine-3-carboxamide]
8 | 3 | O=c1[nH]c(-c2ccc(OCCCCCC(F)(F)F)cc2C(F)(F)F)cc(-c2ccn(CC3CC3)n2)c1-c1nn[nH]n1 [Example 155, 4-[1-(Cyclopropylmethyl)-1H-pyrazol-3-yl]-3-(2H-1,2,3,4-tetrazol-5-yl)-6-{4-[(6,6,6-trifluorohexyl)oxy]-2-(trifluoromethyl)phenyl}-1,2-dihydropyridin-2-one]
9 | 46 | CCc1ccc(-c2cc(-c3ccc(OCCCCCC(F)(F)F)cc3F)[nH]c(=O)c2-n2nn[nH]c2=O)s1 [Example 157, 4-(5-Ethylthiophen-2-yl)-6-{2-fluoro-4-[(6,6,6-trifluorohexyl)oxy]phenyl}-3-(5-oxo-4,5-dihydro-1H-1,2,3,4-tetrazol-1-yl)-1,2-dihydropyridin-2-one]
10 | 6 | O=c1[nH]c(-c2ccc(OCCCCCC(F)(F)F)cc2)cc(-c2nn(CC3CC3)cc2Cl)c1-n1nn[nH]c1=O [Example 158, 4-[4-Chloro-1-(cyclopropylmethyl)-1H-pyrazol-3-yl]-3-(5-oxo-4,5-dihydro-1H-1,2,3,4-tetrazol-1-yl)-6-{4-[(6,6,6-trifluorohexyl)oxy]phenyl}-1,2-dihydropyridin-2-one]
11 | 12 | O=C(NS(=O)(=O)C1CC1)c1c(-c2ccn(CC3CC3)n2)cc(-c2ccc(OCCCCCC(F)(F)F)cc2C(F)(F)F)[nH]c1=O [Example 160, N-(Cyclopropanesulfonyl)-4-[1-(cyclopropylmethyl)-1H-pyrazol-3-yl]-2-oxo-6-{4-[(6,6,6-trifluorohexyl)oxy]-2-(trifluoromethyl)phenyl}-1,2-dihydropyridine-3-carboxamide]

Source: patent US9974778B2, “Substituted pyridinones as MGAT2 inhibitors” (BRISTOL-MYERS SQUIBB COMPANY, priority 2014, dated 2018)
